The results in this text go back to patent US20060122276A1, “Agent for inhibiting membrane virus reproduction, method for the production thereof, pharmaceutical composition and method for inhibiting viral infections” (priority 2003, published 2006).

Read-outs that look alike come from different tables or passages of the source.

The conditions of data set [1]: for Solubility in o-Dichlorobenzene: solvent o-dichlorobenzene.
Data set [2] deals with herpes simplex virus (HSV-1). Put plainly: Antiviral activity with respect to HSV-1 in VERO cells. In kind it is cell-based, type 1, strain L2. To be noted: HSV-1, 10 TCD50/ml, VERO; for Degree of protection from CE virus, % A: substance contact time with cells 24 hrs; for Degree of protection from CE virus, % B: substance contact time with cells 48 hrs. The source says: Herpes simplex virus, type 1, strain L2, replicated in VERO cells was used in the investigation.
[…] acyclovir was used as positive control

The test system of the next data set is HIV-1. To be noted: for CPE/syncytia, % / Viability of cells, %: HIV-1; for CPE/syncytia, %: Table 9; for Viability of cells, %: Table 9 (virus control 42).
Data set [3] has as its system lymphoblastoid human cells MT-4. Description: Cytotoxicity on non-infected human lymphoblastoid cells. In kind it is cell-based. To be noted: cytotoxicity.
Where [4] appears, read: 300 μg/ml, human lymphoblastoid cells.

Protocol for HIV-1: Cells Reinoculated humans lymphoblastoid cells MT-4 were used. […] The viability of the cells was determined from the color of a 0.4% solution of trypan blue.
Retrovir (azidothymidin) produced by GlaxoWellcome (Great Britain) was used as positive control.
The Antiviral activity of the preparations was investigated on a model of lymphoblastoid cells in a plastic 24-cell plate. The virus dose was 100 TCD50 (50% tissue cytopathic dose). […] The activity of the preparation was determined from the inhibition of the virus-induced cytopathic action (CPA) in the cell cultures and the virus antigen level in the culture fluid by immunoenzymatic analysis.

In the case of `c12c3c4c5c1c1c6c7c2c2c8c3c3c9c4c4c%10c5c5c1c1c6c6c%11c7c2c2c7c8c3c3c8c9c4c4c9c%10c5c5c1c1c6c6c%11c2c2c7c3c3c8c4c4c9c5c1c1c6c2c3c41` [Fullerene], the “Solubility in Glacial acetic acid” value in data set [1] (solvent glacial acetic acid) is “No”. The “Solubility in o-Dichlorobenzene” value in data set [1] is on record as “Yes”. In data set [1] (solvent toluene), the “Solubility in Toluene” value is listed as “Yes”. Moreover, the “Solubility in Water” value in data set [1] (solvent water) is on record as “No”.

As to “sodium salt of fullerene-polyamino-butyric acid [ABA]”, the “Degree of protection from CE virus, % A” value in data set [2] (0.1 μg/ml) was 0.0%; in data set [2] (10.0 μg/ml), 33.3%; in data set [2] (25.0 μg/ml) it was 100%; in data set [2] (50.0 μg/ml) it was 100%. In addition, the “Degree of protection from CE virus, % B” value is 33.3% in data set [2] (0.1 μg/ml), 33.3% in data set [2] (10.0 μg/ml), 100% in data set [2] (25.0 μg/ml) and 100% in data set [2] (50.0 μg/ml). For the same molecule, in data set [1], the “Solubility in o-Dichlorobenzene” value is recorded as “No”. The “Antiviral activity with respect to HIV-1 compared with fullerene-polyamino-caproic acid” value in the data set with HIV-1 is “lower antiviral activity”. The “CPE/syncytia, %” value with HIV-1 (0.1 μg/ml) came out at 25%; in the data set on HIV-1 (0.5 μg/ml), 15%; with HIV-1 (1.0 μg/ml), 10%; in the data set on HIV-1 (10.0 μg/ml), 0%. Moreover, the “Viability of cells, %” value in the data set on HIV-1 (0.1 μg/ml) stood at 52%; in the data set with HIV-1 (0.5 μg/ml) it was 65%; in the data set on HIV-1 (1.0 μg/ml), 71%; in the data set with HIV-1 (10.0 μg/ml), 72%.

Regarding “sodium salt of fullerene-polyamino-octanoic acid [AOA]”, the “Viability of cells, %” value in data set [3] (100 μg/ml, human lymphoblastoid cells (cell control 95)) is 79%; in data set [3] (setting [4]), 82%; in the data set with HIV-1 (0.1 μg/ml), 50%; in the data set with HIV-1 (0.5 μg/ml), 53%; in the data set with HIV-1 (1.0 μg/ml) it was 57%; with HIV-1 (10.0 μg/ml), 60%. For the same molecule, the “Number of cells × 10^3/ml” value in data set [3] (100 μg/ml, human lymphoblastoid cells (cell control 250)) was 150 × 10^3/ml; in data set [3] (setting [4]), 150 × 10^3/ml. Also, the “Degree of protection from CE virus, % A” value in data set [2] (1.0 μg/ml) came to 33.3%; in data set [2] (10.0 μg/ml), 100%. The “Degree of protection from CE virus, % B” value in data set [2] (1.0 μg/ml) and in data set [2] (10.0 μg/ml) was 100% in each case. Further, the “Antiviral activity with respect to HIV-1 compared with fullerene-polyamino-caproic acid” value in the data set with HIV-1 is recorded as “lower antiviral activity”. For the same molecule, the “CPE/syncytia, %” value with HIV-1 (0.1 μg/ml) worked out at 25%; with HIV-1 (0.5 μg/ml) it was 25%; in the data set with HIV-1 (1.0 μg/ml), 25%; in the data set on HIV-1 (10.0 μg/ml), 0%.
